Columns and labels:
[1] = target: T1, recombinant GST-tagged human protein kinase D1 (PKD1) (Homo sapiens, UniProt Q15139); assay: In vitro radiometric PKD1 kinase assay; format: biochemical
T1 construct: purchased Enzo Life sciences (Farmingdale, NY)
T1 sequence (Q15139 1-912): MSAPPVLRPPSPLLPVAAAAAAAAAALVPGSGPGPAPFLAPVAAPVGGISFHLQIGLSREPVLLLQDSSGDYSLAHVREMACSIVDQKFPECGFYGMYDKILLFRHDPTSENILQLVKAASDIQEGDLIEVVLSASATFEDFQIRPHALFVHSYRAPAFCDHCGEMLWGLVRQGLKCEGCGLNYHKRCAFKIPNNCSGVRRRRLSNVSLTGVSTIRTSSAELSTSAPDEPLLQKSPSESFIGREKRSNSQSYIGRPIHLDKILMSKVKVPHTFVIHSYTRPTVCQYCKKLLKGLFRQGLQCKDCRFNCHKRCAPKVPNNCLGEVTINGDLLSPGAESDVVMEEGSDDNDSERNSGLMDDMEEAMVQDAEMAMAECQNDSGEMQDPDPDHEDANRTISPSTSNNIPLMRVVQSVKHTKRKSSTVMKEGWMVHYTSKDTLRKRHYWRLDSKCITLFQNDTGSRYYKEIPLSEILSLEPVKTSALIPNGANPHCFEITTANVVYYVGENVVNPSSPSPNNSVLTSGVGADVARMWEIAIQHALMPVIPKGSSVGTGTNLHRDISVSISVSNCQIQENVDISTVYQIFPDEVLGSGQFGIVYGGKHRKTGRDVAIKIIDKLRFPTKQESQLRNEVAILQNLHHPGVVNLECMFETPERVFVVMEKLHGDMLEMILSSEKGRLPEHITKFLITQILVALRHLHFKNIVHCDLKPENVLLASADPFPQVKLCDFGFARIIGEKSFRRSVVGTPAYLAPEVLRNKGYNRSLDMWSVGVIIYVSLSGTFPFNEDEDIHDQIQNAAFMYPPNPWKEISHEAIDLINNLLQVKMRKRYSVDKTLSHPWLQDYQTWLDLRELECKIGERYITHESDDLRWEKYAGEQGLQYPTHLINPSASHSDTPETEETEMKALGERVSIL
Procedure: All compounds were given distinct UPCMLD (University of Pittsburgh Center for Chemical Methodologies and Library Development) IDs and were then assigned numerical IDs for convenient data display. Evaluation of each compound was carried out in triplicate at a single concentration (1 µM). Our previously described PKD1 inhibitor, kb-NB142-70, and DMSO (solvent alone) were used as positive and negative controls, respectively. Percent residual kinase activity was calculated based on that of the negative control (DMSO).
Kinase active recombinant GST-tagged human protein kinase D1 (PKD1) was obtained from Enzo Life sciences (Farmingdale, NY). DMSO was purchased from Sigma. Recombinant PKCα, PKCδ and CAMKIIα were obtained from SignalChem (Richmond, BC, Canada). ATP was purchased from Fisher Scientific. HDAC5 substrate peptide was synthesized by Biobasic Canada Inc. (Markham, ON). Myelin basic protein 4–14 was purchased from AnaSpec Inc. (Fremont, CA). The targeted kinase inhibitor library was obtained from Hoffmann-La Roche, Inc.
1.2 µg of HDAC-5 was used as substrate in the reaction. Phosphorylation of HDAC5 was detected in a kinase reaction having 1 µCi [γ-^32P] […] The reaction was incubated at 30° for 10 minutes and 25 µL of the reaction was spotted on Whatman P81 filter paper. The filter paper was washed 3 times in 0.5% phosphoric acid, air dried and counted using Beckman LS6500 multipurpose scintillation counter. Percent PKD1 inhibition was graphed using GraphPad Prism software 5.0.

[2] = test system: LPS-stimulated TNFα synthesis; set-up: method as in PMID 14561090; settings: acute rat model of LPS-stimulated TNFα synthesis; cited from earlier work
PKD1 = target: T2, PKD1 (Homo sapiens, UniProt Q15139); assay: Kinetic analysis, Lineweaver-Burk plots (ATP competition); format: biochemical
T2 construct: purchased Enzo Life sciences (Farmingdale, NY)
Procedure: (§1) PMA induces PKC-dependent phosphorylation of Ser744/748 (S^744/748) in the activation loop followed by autophosphorylation of PKD1 on Ser916 (S^916) in the C-terminus, [31]. The catalytic activity of PKD1 correlates well with the level of phosphorylation at S^916 [31].
(§2) Figure 5 In vitro IC50, cellular activity, and mode of action of representative compounds. […] IC50 values were calculated based on the dose-response curve. Data are represented as mean ± SEM of 3 independent experiments. […] Cell lysates were subjected to immunoblotting for pS^916-PKD1 and pS^744/748-PKD1. Tubulin was blotted as loading control. The experiments were repeated three times and representative blots are shown. C.

[3] = target: T3, endogenous PKD1 in LNCaP prostate cancer cells (Homo sapiens, UniProt Q15139); assay: PMA-induced activation of PKD1 in LNCaP cells (immunoblot pS916 / pS744/748); format: cell-based; settings: PMA 10 nM
T3 construct: endogenous in cells; host or cells: LNCaP prostate cancer cells
T3 sequence (Q15139 1-912): T1 sequence (Q15139 1-912)
Procedure: as §1, §2

p38α = p38α (Homo sapiens, UniProt Q16539); settings: 10 and 100 nM
p38α, sequence (Q16539 whole entry): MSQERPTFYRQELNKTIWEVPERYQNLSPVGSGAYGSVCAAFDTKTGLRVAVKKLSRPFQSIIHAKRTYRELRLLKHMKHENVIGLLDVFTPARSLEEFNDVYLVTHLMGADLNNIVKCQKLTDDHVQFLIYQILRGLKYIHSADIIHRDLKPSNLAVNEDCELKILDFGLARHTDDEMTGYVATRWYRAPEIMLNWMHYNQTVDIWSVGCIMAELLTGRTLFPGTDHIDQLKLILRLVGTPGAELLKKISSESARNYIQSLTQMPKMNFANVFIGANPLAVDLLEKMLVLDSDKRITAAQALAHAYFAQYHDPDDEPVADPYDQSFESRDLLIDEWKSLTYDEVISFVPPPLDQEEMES
Procedure: Phosphorylation of 3.5 µg of p38 substrate was detected in a reaction having 1 µCi [γ-^32P] ATP (Perkin Elmer Life Sciences), 50 µM ATP, 50 ng active recombinant p38 in 50 µL kinase buffer containing 25 mM Tris-HCl, pH 7.5, 10 mM MgCl2, 5 mM β-glycerophosphate, 0.1 mM Na3VO4 and 2 mM DTT. The reaction was incubated at 30°C for 10 minutes and 25 µL of the reaction was spotted on Whatman P81 filter paper. The filter paper was washed 3 times in 0.5% phosphoric acid, air dried and counted using Beckman LS6500 multipurpose scintillation counter. Percent p38 inhibition was graphed using GraphPad Prism software 5.0.

PKCδ = PKCδ (Homo sapiens, UniProt Q05655); assay: In vitro radiometric PKC kinase assay; format: biochemical; set-up: purchased SignalChem (Richmond, BC, Canada); settings: 0.1, 1 and 10 µM; positive control
PKCδ, sequence (Q05655 whole entry): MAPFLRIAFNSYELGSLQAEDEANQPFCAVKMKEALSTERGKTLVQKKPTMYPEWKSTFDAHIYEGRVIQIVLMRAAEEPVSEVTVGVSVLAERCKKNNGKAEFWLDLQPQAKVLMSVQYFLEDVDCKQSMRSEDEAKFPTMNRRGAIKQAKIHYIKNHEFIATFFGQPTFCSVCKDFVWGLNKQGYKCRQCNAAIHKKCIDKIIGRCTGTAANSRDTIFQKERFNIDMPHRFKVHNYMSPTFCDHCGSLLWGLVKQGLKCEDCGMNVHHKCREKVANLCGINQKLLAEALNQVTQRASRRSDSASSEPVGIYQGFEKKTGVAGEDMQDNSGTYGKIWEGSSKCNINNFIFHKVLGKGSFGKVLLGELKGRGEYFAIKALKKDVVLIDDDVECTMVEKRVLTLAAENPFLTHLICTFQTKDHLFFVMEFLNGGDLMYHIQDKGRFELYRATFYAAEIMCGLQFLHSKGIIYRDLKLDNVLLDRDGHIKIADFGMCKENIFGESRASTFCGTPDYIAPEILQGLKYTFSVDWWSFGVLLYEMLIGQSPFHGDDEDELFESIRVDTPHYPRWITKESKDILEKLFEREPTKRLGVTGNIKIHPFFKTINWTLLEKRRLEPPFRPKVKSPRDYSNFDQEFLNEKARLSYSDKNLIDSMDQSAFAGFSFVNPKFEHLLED
Procedure: (§3) In this study, we counter-screened the twenty-eight PKD1 inhibitory agents for inhibition of PKCα, PKCδ and CAMKIIα in order to get an initial profile for the potential PKD selectivity, since these are the functionally most closely related kinases. The compounds were examined at 0.1, 1 and 10 µM concentration. […] Next, the inhibitory activity for CAMKIIα was examined.
(§4) The PKC kinase assay was carried out by co-incubating 1 µCi [γ-^32P]ATP, 20 µM ATP, 50 ng of purified PKCα or PKCδ and 5 µg of myelin basic protein 4–14, 0.25 mg/mL bovine serum albumin, 0.1 mg/mL phosphatidylcholine/phosphatidylserine (80/20%) (1 µM), 1 µM phorbol dibutyrate in 50 µL of kinase buffer containing 50 mM Tris-HCl, pH 7.5, 4 mM MgCl2 and 10 mM β-mercaptoethanol. For the CAMK assay, 50 ng of CAMK and 2 µg Syntide-2 substrate in 50 µL kinase buffer were incubated with 0.1 mM MgCl2, 1 µCi of [γ-^32P] ATP, 70 µM ATP. 0.5 mM CaCl2 and 30 ng/µL calmodulin were preincubated for 15 min on ice and then added in the kinase reaction. The reactions were incubated at 30°C for 10 minutes and 25 µL of the reaction was spotted on Whatman P81 filter paper. The filter paper was washed 3 times in 0.5% phosphoric acid, air dried and counted using Beckman LS6500 multipurpose scintillation counter.

PKCα = target: T4, PKCα (Homo sapiens, UniProt P17252); assay: In vitro radiometric PKC kinase assay; format: biochemical; settings: 0.1, 1 and 10 µM; positive control
T4 construct: purchased SignalChem (Richmond, BC, Canada)
Procedure: as §3, §4

IC50 ([1]; dose-response, mean ± SEM of 3 independent experiments) [µM]	inhibition at 1 µM ([1]; read-out: Inhibition of PKD1) [%]	mode of inhibition with respect to ATP (PKD1)	effect on PKC-induced transphosphorylation at S744/748 [3]	IC50 ([3]; densitometry of pS916-PKD1 levels, read-out: cellular IC50 for inhibition of PKD1) [µM]	inhibition of p38α (p38α)	SMILES	in vivo efficacy [2]	inhibition of PKCδ (PKCδ)	inhibition of PKCα (PKCα)
0.0168	94	competitive with respect to ATP	did not affect	1.5	most potent	CC(CO)Nc1cc(-c2[nH]c3cccnc3c2-c2ccc(F)cc2)ccn1 (stereo not drawn) [Compound 139]	in vivo efficacy has been demonstrated	–	–
–	–	–	–	–	–	CN(C)CCCn1cc(C2=C(c3c[nH]c4ccccc34)C(=O)NC2=O)c2ccccc21 [GF109203X, reference compound]	–	strongly inhibited	strongly inhibited

From PMC3445516 (PLoS ONE, 2012)
